According to article PMC7366380, “Discovery of a Potent and Selective Covalent Inhibitor and Activity-Based Probe for the Deubiquitylating Enzyme UCHL1, with Antifibrotic Activity” (Journal of the American Chemical Society, 2020):

Legend:
[1] = FMT assay, cell number (DAPI nuclei count); conditions: human
[2] = tested on: primary human bronchial fibroblasts from IPF patients (TGF-β1-triggered αSMA); experiment: Fibroblast-to-myofibroblast transition (FMT) assay, αSMA by high content analysis

EC50 at 3 days [1]: ~18 µM
SMILES: COC(=O)c1ccc2c(c1)NC(=O)/C2=C(\Nc1ccc(N(C)C(=O)CN2CCN(C)CC2)cc1)c1ccccc1 [nintedanib, reference compound]
IC50 ([2]; Homo sapiens, Fibroblast, 72 h, read-out: αSMA inhibition IC50 (95% CI)): 0.28 µM
αSMA inhibition / transdifferentiation (in words) ([2]; IPF donor fibroblasts, TGF-β1, 3 days, high content imaging): inhibit transdifferentiation
